This is an account of results in ChEMBL document CHEMBL3856211, “A critical review of both the synthesis approach and the receptor profile of the 8-chloro-1-(2',4'-dichlorophenyl)-N-piperidin-1-yl-1,4,5,6-tetrahydrobenzo[6,7]cyclohepta[1,2-c]pyrazole-3-carboxamide and analogue derivatives” (Eur J Med Chem, 2016).

For assay [1], the target named is Cannabinoid receptor 1 (Mus musculus, UniProt P47746). Description: Displacement of [3H]-CP55,940 from CB1 receptor in mouse whole brain membranes after 60 mins by liquid scintillation spectrometry. It counts as cell membranes, Membrane.
Sequence of Cannabinoid receptor 1 (Mus musculus, UniProt P47746) (P47746 whole entry): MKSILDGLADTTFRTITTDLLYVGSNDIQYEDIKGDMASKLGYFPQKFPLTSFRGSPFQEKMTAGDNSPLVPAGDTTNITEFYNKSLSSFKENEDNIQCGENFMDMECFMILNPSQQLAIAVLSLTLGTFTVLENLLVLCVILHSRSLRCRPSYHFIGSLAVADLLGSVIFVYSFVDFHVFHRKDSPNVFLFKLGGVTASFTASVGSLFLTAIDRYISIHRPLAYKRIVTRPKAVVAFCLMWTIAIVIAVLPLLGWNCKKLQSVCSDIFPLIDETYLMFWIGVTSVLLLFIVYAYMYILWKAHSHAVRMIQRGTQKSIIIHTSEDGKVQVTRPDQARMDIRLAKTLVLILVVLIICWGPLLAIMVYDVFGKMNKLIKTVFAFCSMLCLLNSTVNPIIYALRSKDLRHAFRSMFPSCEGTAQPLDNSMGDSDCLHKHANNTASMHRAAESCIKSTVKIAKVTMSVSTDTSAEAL
The target in assay [2] is Cannabinoid receptor 2 (Homo sapiens, UniProt P34972). As to the kind of experiment: Displacement of [3H]-CP55,940 from human CB2 receptor transfected in CHO cell membranes after 60 mins by liquid scintillation spectrometry. (In a radioligand displacement assay an active substance lowers the binding of a labelled ligand.)
Sequence of Cannabinoid receptor 2 (P34972 whole entry): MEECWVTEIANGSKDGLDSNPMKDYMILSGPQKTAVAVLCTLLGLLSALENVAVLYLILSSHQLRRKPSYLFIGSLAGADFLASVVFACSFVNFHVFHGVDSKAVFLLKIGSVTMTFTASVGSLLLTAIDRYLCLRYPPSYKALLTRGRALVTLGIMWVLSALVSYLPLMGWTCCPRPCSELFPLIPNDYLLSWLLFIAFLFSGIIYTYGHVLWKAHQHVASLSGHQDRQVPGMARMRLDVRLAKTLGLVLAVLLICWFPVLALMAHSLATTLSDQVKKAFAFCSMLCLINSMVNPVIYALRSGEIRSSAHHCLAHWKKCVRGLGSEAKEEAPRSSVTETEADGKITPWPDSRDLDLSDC
Assay [3] deals with Cannabinoid receptor 1 (Mus musculus) (UniProt P47746). Description: Intrinsic activity at CB1 receptor in mouse N1E-115 cells assessed as phosphorylation of ERK1/2 at 1 nM to 10 uM after 10 mins by Western blot method. It counts as cell-based.
Sequence of Cannabinoid receptor 1 (Mus musculus) (P47746 whole entry): as the sequence (P47746 whole entry) above
Assay [4] is described as follows: Selectivity ratio of Ki for human CB2 receptor to Ki for CB1 receptor in mouse whole brain membranes. It counts as cell membranes.
The target of assay [5] is Cannabinoid receptor 1 (Mus musculus) (UniProt P47746). Description: Intrinsic activity at CB1 receptor in mouse N1E-115 cells assessed as phosphorylation of ERK1/2 at 1 uM after 10 mins by Western blot method relative to control. In kind it is cell-based.
For assay [6] the target is unchanged. Description: Antagonist activity at CB1 receptor in mouse N1E-115 cells assessed as inhibition of WIN55,212-2-induced phosphorylation of ERK1/2 by measuring phosphorylated ERK1/2 level at 1 uM preincubated for 5 mins followed by WIN55,212-2 addition measured after 10 mins by Western blot method. It counts as cell-based. Details: scale not given: the % may be the effect or the level left. A general note: In western blotting, separated proteins are transferred to a membrane and probed.

The target in assay [7] is Cannabinoid receptor 1 (Homo sapiens, UniProt P21554). Description: Displacement of [3H]-CP55,940 from human CB1 receptor transfected in CHO cell membranes.
Sequence of Cannabinoid receptor 1 (Homo sapiens, UniProt P21554) (P21554 whole entry): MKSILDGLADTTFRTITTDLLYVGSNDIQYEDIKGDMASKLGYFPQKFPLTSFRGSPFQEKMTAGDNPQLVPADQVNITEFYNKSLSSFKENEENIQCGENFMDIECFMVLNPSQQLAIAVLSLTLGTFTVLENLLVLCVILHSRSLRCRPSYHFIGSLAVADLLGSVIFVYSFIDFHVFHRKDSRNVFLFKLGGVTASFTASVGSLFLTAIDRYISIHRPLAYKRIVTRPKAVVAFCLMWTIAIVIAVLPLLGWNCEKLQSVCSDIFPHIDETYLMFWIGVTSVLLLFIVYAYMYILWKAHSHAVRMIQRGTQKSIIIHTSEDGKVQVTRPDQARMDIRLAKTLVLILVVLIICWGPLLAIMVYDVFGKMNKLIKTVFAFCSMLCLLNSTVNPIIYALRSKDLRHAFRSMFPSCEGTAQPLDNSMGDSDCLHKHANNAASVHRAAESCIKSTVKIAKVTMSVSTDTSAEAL

Values joined by “and” are separate entries in the source; they are usually repeats but may differ in a detail not shown here. Equal entries are not always repeated. Active and inactive are the calls of the source. The calls are words filed in the database; no cut-off is given here.

As for `CC1(C)C2CCC(CNC(=O)c3nn(-c4ccc(Cl)cc4Cl)c4c3CCCc3cc(Cl)ccc3-4)C1C2` (stereo unspecified), the figures for the Ki in assay [1] and in assay [2] were 3.6 nM and 19.5 nM, respectively. The outcome in assay [3] was Active. Further, the Ratio Ki in assay [4] amounted to 5.42.

Consider `O=C(NCC1CCCCC1)c1nn(-c2ccc(Cl)cc2Cl)c2c1CCCc1cc(Cl)ccc1-2`, for which the Ki in assay [1] was found to be 19.4 nM; in assay [2], 31.8 nM. Further, the Intrinsic activity in assay [5] turned out to be 100%. Moreover, the Activity in assay [6] was 109%. Moreover, the Ratio Ki in assay [4] was 1.64.

For the compound `OC(CC1CCCCC1)c1nn(-c2ccc(Cl)cc2Cl)c2c1CCCc1cc(Cl)ccc1-2` (stereo unspecified), the inhibition constant Ki in assay [1] was determined as 154 nM; in assay [2], 24 nM. For the same compound, in assay [4], the Ratio Ki stood at 0.16.

As for `O=C(NN1CCCC1)c1nn(-c2ccc(Cl)cc2Cl)c2c1CCCc1cc(Cl)ccc1-2`, the Ki in assay [1] is 17.2 nM; in assay [2], 182 nM. Also, the Intrinsic activity in assay [5] was found to be 95%. Besides, the Activity in assay [6] worked out at 103%. The Ratio Ki in assay [4] came out at 10.6.

With `Cc1ccc(Cn2nc(C(=O)NCC3CCC4CC3C4(C)C)c3c2-c2cc(Cl)ccc2CCC3)cc1` (stereo unspecified), the Ki worked out at 169 nM in assay [1] and 51.1 nM in assay [2]. Also, the Ratio Ki in assay [4] stood at 0.3.

`Cc1c(C(=O)NN2CCCCC2)nn(-c2ccc(Cl)cc2Cl)c1-c1ccc(Cl)cc1`: in assay [5], the Intrinsic activity came out at 110%. For the same compound, the Activity in assay [6] stood at 108%.

As for `Cc1ccc(Cn2nc(C(=O)NCC3CCC4CC3C4(C)C)c3c2-c2ccc(Cl)cc2CCC3)cc1` (stereo unspecified), the Ki turned out to be 313 nM in assay [1] and 9.5 nM in assay [2]. The Ratio Ki in assay [4] came to 0.03.

On to `O=C(NC[C@H]1CCCO1)c1nn(-c2ccc(Cl)cc2Cl)c2c1CCCc1cc(Cl)ccc1-2`, for which the Ki in assay [1] was 24.8 nM; in assay [2] it was 52.1 nM. Further, the Intrinsic activity in assay [5] turned out to be 113%. The Activity in assay [6] stood at 118%. For the same compound, the Ratio Ki in assay [4] was 2.1.

On to `O=C(CC1CCCCC1)c1nn(-c2ccc(Cl)cc2Cl)c2c1CCCc1cc(Cl)ccc1-2`, for which the inhibition constant Ki in assay [1] is 8.5 nM; in assay [2] it was 325 nM. The Intrinsic activity in assay [5] worked out at 115%. The Activity in assay [6] was 105%. In addition, in assay [4], the Ratio Ki was 38.2.

With `CC1(C)C2CCC(CNC(=O)c3nn(-c4ccc(Cl)cc4Cl)c4c3CCCc3ccc(Cl)cc3-4)C1C2` (stereo unspecified), the inhibitory constant (Ki) was 17.3 nM in assay [1] and 13.6 nM in assay [2]. Also, the outcome in assay [3] was Active. Moreover, the Ratio Ki in assay [4] was determined as 0.79.

For `O=C(NC1CCCCC1)c1nn(-c2ccc(Cl)cc2Cl)c2c1CCCc1cc(Cl)ccc1-2`, the Ki worked out at 10.2 nM in assay [1] and 17.9 nM in assay [2]. The Intrinsic activity in assay [5] turned out to be 113%. Besides, in assay [6], the Activity was found to be 117%. For the same compound, the Ratio Ki in assay [4] was 1.75.

Turning to `O=C(NCC12CC3CC(CC(C3)C1)C2)c1nn(-c2ccc(Cl)cc2Cl)c2c1CCCc1cc(Cl)ccc1-2`, the figures for the Ki in assay [1] and in assay [2] were 19.1 nM and 13.3 nM, respectively. Further, the Intrinsic activity in assay [5] was 98%. Besides, in assay [6], the Activity turned out to be 108%. Further, the Ratio Ki in assay [4] stood at 0.69.

On to `O=C(NN1CCCCC1)c1nn(-c2ccc(Cl)cc2Cl)c2c1CCCc1cc(Cl)ccc1-2`, for which the Ki was 8.18 nM and 4.2 nM in assay [1]; 55.7 nM and 85.2 nM in assay [2]; 126 nM in assay [7]. In addition, in assay [5], the Intrinsic activity is 111%. Further, the Activity in assay [6] stood at 115%. In addition, the Ratio Ki in assay [4] was 13.3.

In turn, `CCCCCCC(C)(C)c1ccc([C@@H]2C[C@H](O)CC[C@H]2CCCO)c(O)c1` [CP-55940] had a Ki in assay [1] of 0.62 nM.

As for `O=C(NN1CCCCCC1)c1nn(-c2ccc(Cl)cc2Cl)c2c1CCCc1cc(Cl)ccc1-2`, the Ki in assay [1] was 4.5 nM; in assay [2], 28.1 nM. The Intrinsic activity in assay [5] turned out to be 107%. Further, in assay [6], the Activity is 102%. Further, the Ratio Ki in assay [4] was 6.24.

In general, Ki refers to the dissociation constant of the complex between target and ligand, obtained from inhibition or displacement.
